Source: PubChem BioAssay (NCI)
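Assay format: 96-well plates, 48-hour exposure. The concentration for full growth arrest is given as TGI.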

Key:
Experiment in all cases: NCI anticancer screen, dose series, 48 h
MOLT-4 leukemia = test system: MOLT-4 leukemia
HCT-15 colon = test system: HCT-15 colon
SN12C renal = test system: SN12C renal
786-0 renal = test system: 786-0 renal
T-47D breast = test system: T-47D breast
NCI-H226 lung = test system: NCI-H226 lung
SF-268 CNS = test system: SF-268 CNS
UACC-62 melanoma = test system: UACC-62 melanoma
NCI-H23 lung = test system: NCI-H23 lung
UO-31 renal = test system: UO-31 renal
SF-295 CNS = test system: SF-295 CNS
SK-MEL-5 melanoma = test system: SK-MEL-5 melanoma
UACC-257 melanoma = test system: UACC-257 melanoma
ACHN renal = test system: ACHN renal
TK-10 renal = test system: TK-10 renal
A549 NSCLC = test system: A549 NSCLC
K-562 leukemia = test system: K-562 leukemia
SF-539 CNS = test system: SF-539 CNS
HL-60(TB) leukemia = test system: HL-60(TB) leukemia

With `CCOC(=O)Cn1sc2ncc([N+](=O)[O-])cc2c1=O` the TGI (MOLT-4 leukemia) was 9.45 µM, the TGI (HCT-15 colon) was 31.2 µM and the TGI (SN12C renal) was 31.6 µM. The TGI (786-0 renal) was 30.6 µM, the TGI (T-47D breast) was 37.5 µM and the TGI (NCI-H226 lung) was greater than 100 µM. It also gave a TGI (SF-268 CNS) of 44.6 µM, a TGI (UACC-62 melanoma) of 48.4 µM and a TGI (NCI-H23 lung) of 39.3 µM. The TGI (UO-31 renal) was 21.8 µM, the TGI (SF-295 CNS) was 34.8 µM and the TGI (SK-MEL-5 melanoma) was 85.3 µM. For the same compound, the TGI (UACC-257 melanoma) was 31.6 µM, the TGI (ACHN renal) was 29.5 µM and the TGI (TK-10 renal) was 32.8 µM. The TGI (A549 NSCLC) was 39.7 µM, the TGI (K-562 leukemia) was 12.3 µM and the TGI (SF-539 CNS) was 38.5 µM. The TGI (HL-60(TB) leukemia) was greater than 100 µM.

With `Cc1nc(N)c(N2CCNCC2)c(=O)[nH]1` the TGI (MOLT-4 leukemia) was greater than 100 µM, the TGI (HCT-15 colon) was greater than 100 µM and the TGI (SN12C renal) was greater than 100 µM. It also gave a TGI (786-0 renal) greater than 100 µM, a TGI (T-47D breast) greater than 100 µM and a TGI (NCI-H226 lung) greater than 100 µM. The TGI (SF-268 CNS) was greater than 100 µM, the TGI (NCI-H23 lung) was greater than 100 µM and the TGI (UO-31 renal) was greater than 100 µM. The TGI (SF-295 CNS) was greater than 100 µM, the TGI (UACC-257 melanoma) was greater than 100 µM and the TGI (ACHN renal) was greater than 100 µM. The TGI (TK-10 renal) was greater than 100 µM, the TGI (A549 NSCLC) was greater than 100 µM and the TGI (K-562 leukemia) was greater than 100 µM. The TGI (SF-539 CNS) was greater than 100 µM and the TGI (HL-60(TB) leukemia) was greater than 100 µM.

Compound `CC(=O)OCC1OC(N2C(c3ccccc3)=CC(c3ccccc3)C(C#N)=C2S)C(OC(C)=O)C(OC(C)=O)C1OC(C)=O` (stereo not given) has a TGI (MOLT-4 leukemia) greater than 100 µM, a TGI (HCT-15 colon) greater than 100 µM and a TGI (SN12C renal) of 15.7 µM. It also gave a TGI (786-0 renal) of 9.85 µM, a TGI (T-47D breast) greater than 24.3 µM and a TGI (NCI-H226 lung) greater than 100 µM. It also gave a TGI (SF-268 CNS) of 19.6 µM, a TGI (UACC-62 melanoma) of 7.67 µM and a TGI (NCI-H23 lung) of 40.5 µM. It also gave a TGI (UO-31 renal) of 51 µM, a TGI (SF-295 CNS) of 10.1 µM and a TGI (SK-MEL-5 melanoma) of 9.98 µM. The TGI (UACC-257 melanoma) was 16.5 µM, the TGI (ACHN renal) was 27 µM and the TGI (TK-10 renal) was 50.1 µM. The TGI (A549 NSCLC) was greater than 46.4 µM, the TGI (K-562 leukemia) was greater than 100 µM and the TGI (SF-539 CNS) was 16.2 µM. For the same compound, the TGI (HL-60(TB) leukemia) was greater than 100 µM.

`O=C1C(Br)=CC2(C=C1Br)CCN=c1c(O)c3c(c(O)c12)=NC=N3` was tested, and the TGI (MOLT-4 leukemia) was greater than 100 µM, the TGI (HCT-15 colon) was 29.1 µM and the TGI (786-0 renal) was 30 µM. For the same compound, the TGI (T-47D breast) was 33.7 µM, the TGI (NCI-H226 lung) was 37.4 µM and the TGI (SF-268 CNS) was 28.2 µM. For the same compound, the TGI (UACC-62 melanoma) was 24.2 µM, the TGI (NCI-H23 lung) was 26.9 µM and the TGI (UO-31 renal) was 29.4 µM. The TGI (SF-295 CNS) was 30 µM, the TGI (SK-MEL-5 melanoma) was 23.4 µM and the TGI (UACC-257 melanoma) was 28 µM. It also gave a TGI (ACHN renal) of 27.7 µM, a TGI (TK-10 renal) of 59 µM and a TGI (A549 NSCLC) of 37.9 µM. The TGI (K-562 leukemia) was 41.1 µM, the TGI (SF-539 CNS) was 32.1 µM and the TGI (HL-60(TB) leukemia) was 35 µM.

With `Cc1ccc(S(=O)(=O)OC2C3OC(C)(C)OC3OC2C(c2cc(O)c3c(c2O)C(=O)c2ccccc2C3=O)c2cc(O)c3c(c2O)C(=O)c2ccccc2C3=O)cc1` (stereo not given) the TGI (MOLT-4 leukemia) was greater than 10 µM, the TGI (HCT-15 colon) was greater than 10 µM and the TGI (SN12C renal) was greater than 10 µM. It also gave a TGI (786-0 renal) greater than 10 µM, a TGI (T-47D breast) greater than 10 µM and a TGI (NCI-H226 lung) greater than 10 µM. For the same compound, the TGI (SF-268 CNS) was greater than 10 µM, the TGI (UACC-62 melanoma) was greater than 10 µM and the TGI (NCI-H23 lung) was greater than 10 µM. For the same compound, the TGI (UO-31 renal) was greater than 10 µM, the TGI (SF-295 CNS) was greater than 10 µM and the TGI (SK-MEL-5 melanoma) was greater than 10 µM. It also gave a TGI (UACC-257 melanoma) greater than 10 µM, a TGI (ACHN renal) greater than 10 µM and a TGI (TK-10 renal) greater than 10 µM. The TGI (A549 NSCLC) was greater than 10 µM, the TGI (K-562 leukemia) was greater than 10 µM and the TGI (SF-539 CNS) was greater than 10 µM. For the same compound, the TGI (HL-60(TB) leukemia) was greater than 10 µM.

`CCOC(=O)C(Cl)(NC(=O)c1ccc(F)cc1)C(F)(F)F` (stereo not given) showed a TGI (MOLT-4 leukemia) greater than 100 µM, a TGI (HCT-15 colon) greater than 100 µM and a TGI (SN12C renal) greater than 100 µM. For the same compound, the TGI (786-0 renal) was greater than 100 µM, the TGI (T-47D breast) was greater than 100 µM and the TGI (NCI-H226 lung) was greater than 100 µM. The TGI (SF-268 CNS) was greater than 100 µM, the TGI (NCI-H23 lung) was greater than 100 µM and the TGI (UO-31 renal) was greater than 100 µM. It also gave a TGI (SF-295 CNS) greater than 100 µM, a TGI (SK-MEL-5 melanoma) greater than 100 µM and a TGI (UACC-257 melanoma) greater than 100 µM. The TGI (ACHN renal) was greater than 100 µM, the TGI (TK-10 renal) was greater than 100 µM and the TGI (A549 NSCLC) was greater than 100 µM. For the same compound, the TGI (K-562 leukemia) was greater than 100 µM, the TGI (SF-539 CNS) was greater than 100 µM and the TGI (HL-60(TB) leukemia) was greater than 100 µM.
